From patent US8445492B2, “Method for inhibiting growth of cancer cells and cell telomere and diseases of cell proliferation by using heteroannelated anthraquinone derivative compounds” (National Defense Medical Center, priority 2008, dated 2013)

Experiments:
Assay type in all cases: cell-based
MDA-MB-435 = experiment: NCI DTP in-vitro dose response, Breast Cancer
MDA-MB-231/ATCC = experiment: NCI DTP in-vitro dose response, Breast Cancer; conditions: MDA-MB-231/ATCC
MCF7 = experiment: NCI DTP in-vitro dose response, Breast Cancer
T-47D = experiment: NCI DTP in-vitro dose response, Breast Cancer; conditions: T-47D
HS 578T = experiment: NCI DTP in-vitro dose response, Breast Cancer; conditions: HS 578T
NCI/ADR-RES = experiment: NCI DTP in-vitro dose response, Breast Cancer; conditions: NCI/ADR-RES
BT-549 = experiment: NCI DTP in-vitro dose response, Breast Cancer
SK-MEL-5 = experiment: NCI DTP in-vitro dose response, Melanoma
M14 = experiment: NCI DTP in-vitro dose response, Melanoma
MALME-3M = experiment: NCI DTP in-vitro dose response, Melanoma
UACC-62 = experiment: NCI DTP in-vitro dose response, Melanoma
UACC-257 = experiment: NCI DTP in-vitro dose response, Melanoma
SK-MEL-28 = experiment: NCI DTP in-vitro dose response, Melanoma
LOX IMVI = experiment: NCI DTP in-vitro dose response, Melanoma
[1] = read-out: LC50 (the source's name)

O=C1c2ccccc2C(=O)c2c1ccc1nccnc21 [TABLE 5-9]
TGI (MDA-MB-435; MDA-MB-435): 2.37E−5 | Percent Growth (MDA-MB-435; MDA-MB-435, Log10 Concentration −4.0): −95% | Percent Growth (MDA-MB-435; MDA-MB-435, Log10 Concentration −5.0): 57% | Percent Growth (MDA-MB-435; MDA-MB-435, Log10 Concentration −6.0): 101% | Percent Growth (MDA-MB-435; MDA-MB-435, Log10 Concentration −7.0): 97% | Percent Growth (MDA-MB-435; MDA-MB-435, Log10 Concentration −8.0): 101% | GI50 (MDA-MB-435; MDA-MB-435, read-out: GI50): 11.1 µM | CC50 (MDA-MB-435; MDA-MB-435, read-out: LC50 (the source's name)): 50.4 µM | TGI (MDA-MB-231/ATCC): >1.00E−4 | Percent Growth (MDA-MB-231/ATCC; Log10 Concentration −4.0): 14% | Percent Growth (MDA-MB-231/ATCC; Log10 Concentration −5.0): 64% | Percent Growth (MDA-MB-231/ATCC; Log10 Concentration −6.0): 85% | Percent Growth (MDA-MB-231/ATCC; Log10 Concentration −7.0): 88% | Percent Growth (MDA-MB-231/ATCC; Log10 Concentration −8.0): 100% | GI50 (MDA-MB-231/ATCC; read-out: GI50): 19.1 µM | CC50 (MDA-MB-231/ATCC; [1]): > 100 µM | TGI (MCF7; MCF7): 2.98E−5 | Percent Growth (MCF7; MCF7, Log10 Concentration −4.0): −29% | Percent Growth (MCF7; MCF7, Log10 Concentration −5.0): 27% | Percent Growth (MCF7; MCF7, Log10 Concentration −6.0): 45% | Percent Growth (MCF7; MCF7, Log10 Concentration −7.0): 80% | Percent Growth (MCF7; MCF7, Log10 Concentration −8.0): 81% | GI50 (MCF7; MCF7, read-out: GI50): 0.722 µM | CC50 (MCF7; MCF7, read-out: LC50 (the source's name)): > 100 µM | TGI (T-47D): 7.51E−5 | Percent Growth (T-47D; Log10 Concentration −4.0): −8% | Percent Growth (T-47D; Log10 Concentration −5.0): 56% | Percent Growth (T-47D; Log10 Concentration −6.0): 71% | Percent Growth (T-47D; Log10 Concentration −7.0): 80% | Percent Growth (T-47D; Log10 Concentration −8.0): 85% | GI50 (T-47D; read-out: GI50): 12.6 µM | CC50 (T-47D; [1]): > 100 µM | TGI (HS 578T): 9.14E−5 | Percent Growth (HS 578T; Log10 Concentration −4.0): −2% | Percent Growth (HS 578T; Log10 Concentration −5.0): 59% | Percent Growth (HS 578T; Log10 Concentration −6.0): 81% | Percent Growth (HS 578T; Log10 Concentration −7.0): 90% | Percent Growth (HS 578T; Log10 Concentration −8.0): 88% | GI50 (HS 578T; read-out: GI50): 14.1 µM | CC50 (HS 578T; [1]): > 100 µM | TGI (NCI/ADR-RES): >1.00E−4 | Percent Growth (NCI/ADR-RES; Log10 Concentration −4.0): 8% | Percent Growth (NCI/ADR-RES; Log10 Concentration −5.0): 38% | Percent Growth (NCI/ADR-RES; Log10 Concentration −6.0): 87% | Percent Growth (NCI/ADR-RES; Log10 Concentration −7.0): 92% | Percent Growth (NCI/ADR-RES; Log10 Concentration −8.0): 95% | GI50 (NCI/ADR-RES; read-out: GI50): 5.68 µM | CC50 (NCI/ADR-RES; [1]): > 100 µM | TGI (BT-549; BT-549): 9.35E−5 | Percent Growth (BT-549; BT-549, Log10 Concentration −4.0): −2% | Percent Growth (BT-549; BT-549, Log10 Concentration −5.0): 55% | Percent Growth (BT-549; BT-549, Log10 Concentration −6.0): 83% | Percent Growth (BT-549; BT-549, Log10 Concentration −7.0): 85% | Percent Growth (BT-549; BT-549, Log10 Concentration −8.0): 95% | GI50 (BT-549; BT-549, read-out: GI50): 12.2 µM | CC50 (BT-549; BT-549, read-out: LC50 (the source's name)): > 100 µM

CCc1nc2ccc3c(c2[nH]1)C(=O)c1ccccc1C3=O [TABLE 4-5]
CC50 (SK-MEL-5): > 100 µM | TGI (SK-MEL-5): 8.36E−6 | Percent Growth (SK-MEL-5; Log10 Concentration −4.0): −19% | Percent Growth (SK-MEL-5; Log10 Concentration −5.0): −5% | Percent Growth (SK-MEL-5; Log10 Concentration −6.0): 59% | Percent Growth (SK-MEL-5; Log10 Concentration −7.0): 42% | Percent Growth (SK-MEL-5; Log10 Concentration −8.0): 44% | CC50 (M14): > 100 µM | TGI (M14): >1.00E−4 | Percent Growth (M14; Log10 Concentration −4.0): 25% | Percent Growth (M14; Log10 Concentration −5.0): 50% | Percent Growth (M14; Log10 Concentration −6.0): 78% | Percent Growth (M14; Log10 Concentration −7.0): 95% | Percent Growth (M14; Log10 Concentration −8.0): 88% | GI50 (M14; read-out: GI50): 10.2 µM | CC50 (MALME-3M): > 100 µM | TGI (MALME-3M): 8.69E−5 | Percent Growth (MALME-3M; Log10 Concentration −4.0): −2% | Percent Growth (MALME-3M; Log10 Concentration −5.0): 26% | Percent Growth (MALME-3M; Log10 Concentration −6.0): 83% | Percent Growth (MALME-3M; Log10 Concentration −7.0): 84% | Percent Growth (MALME-3M; Log10 Concentration −8.0): 87% | GI50 (MALME-3M; read-out: GI50): 3.75 µM | CC50 (UACC-62): > 100 µM | TGI (UACC-62): >1.00E−4 | Percent Growth (UACC-62; Log10 Concentration −4.0): 26% | Percent Growth (UACC-62; Log10 Concentration −5.0): 41% | Percent Growth (UACC-62; Log10 Concentration −6.0): 85% | Percent Growth (UACC-62; Log10 Concentration −7.0): 92% | Percent Growth (UACC-62; Log10 Concentration −8.0): 83% | GI50 (UACC-62; read-out: GI50): 6.18 µM | CC50 (UACC-257): > 100 µM | TGI (UACC-257): >1.00E−4 | Percent Growth (UACC-257; Log10 Concentration −4.0): 18% | Percent Growth (UACC-257; Log10 Concentration −5.0): 66% | Percent Growth (UACC-257; Log10 Concentration −6.0): 96% | Percent Growth (UACC-257; Log10 Concentration −7.0): 84% | Percent Growth (UACC-257; Log10 Concentration −8.0): 84% | GI50 (UACC-257; read-out: GI50): 21.6 µM | CC50 (SK-MEL-28): > 100 µM | TGI (SK-MEL-28): 6.36E−5 | Percent Growth (SK-MEL-28; Log10 Concentration −4.0): −12% | Percent Growth (SK-MEL-28; Log10 Concentration −5.0): 48% | Percent Growth (SK-MEL-28; Log10 Concentration −6.0): 79% | Percent Growth (SK-MEL-28; Log10 Concentration −7.0): 84% | Percent Growth (SK-MEL-28; Log10 Concentration −8.0): 89% | GI50 (SK-MEL-28; read-out: GI50): 8.58 µM | CC50 (LOX IMVI): > 100 µM | TGI (LOX IMVI): >1.00E−4 | Percent Growth (LOX IMVI; Log10 Concentration −4.0): 10% | Percent Growth (LOX IMVI; Log10 Concentration −5.0): 33% | Percent Growth (LOX IMVI; Log10 Concentration −6.0): 83% | Percent Growth (LOX IMVI; Log10 Concentration −7.0): 91% | Percent Growth (LOX IMVI; Log10 Concentration −8.0): 101% | GI50 (LOX IMVI; read-out: GI50): 4.61 µM
